Assay results: patent US20230257347A1 (priority 2020, published 2023)
Counter-ions that a name gives are not always drawn.

Experiments:
[1] = target: T1, 5-Hydroxytryptamine (Serotonin) Receptor 1A (5-HT1A) (Homo sapiens, UniProt P08908); assay: cAMP secondary messenger assay, 5-HT1A; type: cell-based
T1 sequence (P08908 1-422): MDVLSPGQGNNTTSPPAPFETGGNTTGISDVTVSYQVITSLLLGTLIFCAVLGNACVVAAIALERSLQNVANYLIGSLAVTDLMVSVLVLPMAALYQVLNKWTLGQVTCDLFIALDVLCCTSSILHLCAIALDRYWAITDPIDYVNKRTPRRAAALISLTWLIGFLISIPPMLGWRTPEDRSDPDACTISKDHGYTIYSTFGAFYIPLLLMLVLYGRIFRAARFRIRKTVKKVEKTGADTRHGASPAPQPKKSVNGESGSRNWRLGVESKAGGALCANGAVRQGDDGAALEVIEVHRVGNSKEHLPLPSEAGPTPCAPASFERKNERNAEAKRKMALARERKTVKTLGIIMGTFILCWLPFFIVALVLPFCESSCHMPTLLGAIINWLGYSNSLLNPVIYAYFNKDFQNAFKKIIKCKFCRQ

[2] = target: T2, Adrenergic Receptor α2A (ADRA2A) (Homo sapiens, UniProt P08913); assay: cAMP assay, ADRA2A; type: cell-based
T2 sequence (P08913 1-465): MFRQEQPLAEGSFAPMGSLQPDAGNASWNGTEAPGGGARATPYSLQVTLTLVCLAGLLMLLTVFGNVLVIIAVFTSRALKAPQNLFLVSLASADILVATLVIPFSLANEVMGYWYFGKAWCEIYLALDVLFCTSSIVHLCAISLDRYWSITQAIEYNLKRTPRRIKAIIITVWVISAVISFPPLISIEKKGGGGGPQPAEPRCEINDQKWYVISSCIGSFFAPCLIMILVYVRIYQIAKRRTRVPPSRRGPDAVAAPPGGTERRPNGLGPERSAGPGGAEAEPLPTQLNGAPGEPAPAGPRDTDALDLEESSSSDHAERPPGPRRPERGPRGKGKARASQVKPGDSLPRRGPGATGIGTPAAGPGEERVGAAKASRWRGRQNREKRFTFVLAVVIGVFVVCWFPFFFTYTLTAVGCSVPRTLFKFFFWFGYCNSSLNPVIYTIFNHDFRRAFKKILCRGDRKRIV

[3] = target: Adrenergic Receptor β2 (ADRB2) (Homo sapiens, UniProt P07550); assay: cAMP assay, ADRB2; type: cell-based
[4] = target: Cannabinoid Receptor 1 (CNR1) (Homo sapiens, UniProt P21554); assay: cAMP assay, CNR1; type: cell-based
[5] = target: Cannabinoid Receptor 2 (CNR2) (Homo sapiens, UniProt P34972); assay: cAMP assay, CNR2; type: cell-based
[6] = target: T3, Endothelin Receptor Type A (EDNRA) (Homo sapiens, UniProt P25101); assay: Calcium flux assay, EDNRA; type: cell-based
T3 sequence (P25101 21-427): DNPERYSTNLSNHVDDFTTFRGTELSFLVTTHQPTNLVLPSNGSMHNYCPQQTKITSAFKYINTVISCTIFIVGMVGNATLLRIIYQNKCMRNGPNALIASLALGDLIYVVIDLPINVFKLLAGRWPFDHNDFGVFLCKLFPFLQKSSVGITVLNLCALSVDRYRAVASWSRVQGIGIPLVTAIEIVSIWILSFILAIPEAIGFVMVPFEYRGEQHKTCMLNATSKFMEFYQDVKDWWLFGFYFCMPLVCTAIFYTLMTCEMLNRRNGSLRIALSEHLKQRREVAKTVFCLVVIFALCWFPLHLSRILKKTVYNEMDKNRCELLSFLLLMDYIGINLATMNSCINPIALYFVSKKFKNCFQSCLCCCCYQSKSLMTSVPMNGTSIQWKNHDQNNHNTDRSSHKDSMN

[7] = target: Opioid Receptor Kappa 1 (OPRK1) (Homo sapiens, UniProt P41145); assay: cAMP assay, OPRK1; type: cell-based
[8] = target: T4, Nicotinic acetylcholine Receptor α4 β2 (nAChR(a4/b2)) (Homo sapiens, UniProt P17787+P43681); assay: cell-based
T4 construct: expressed in transfected cells

[9] = target: T5, Acetylcholinesterase (AChE) (Homo sapiens, UniProt P22303); assay: Enzymatic assay, AChE; type: biochemical
T5 construct: purchased R&D Systems

[10] = target: T6, Nuclear Hormone Androgen Receptor (AR) (Homo sapiens, UniProt P10275); assay: NHR Nuclear Translocation assay, AR; type: cell-based
T6 sequence (P10275 1-920): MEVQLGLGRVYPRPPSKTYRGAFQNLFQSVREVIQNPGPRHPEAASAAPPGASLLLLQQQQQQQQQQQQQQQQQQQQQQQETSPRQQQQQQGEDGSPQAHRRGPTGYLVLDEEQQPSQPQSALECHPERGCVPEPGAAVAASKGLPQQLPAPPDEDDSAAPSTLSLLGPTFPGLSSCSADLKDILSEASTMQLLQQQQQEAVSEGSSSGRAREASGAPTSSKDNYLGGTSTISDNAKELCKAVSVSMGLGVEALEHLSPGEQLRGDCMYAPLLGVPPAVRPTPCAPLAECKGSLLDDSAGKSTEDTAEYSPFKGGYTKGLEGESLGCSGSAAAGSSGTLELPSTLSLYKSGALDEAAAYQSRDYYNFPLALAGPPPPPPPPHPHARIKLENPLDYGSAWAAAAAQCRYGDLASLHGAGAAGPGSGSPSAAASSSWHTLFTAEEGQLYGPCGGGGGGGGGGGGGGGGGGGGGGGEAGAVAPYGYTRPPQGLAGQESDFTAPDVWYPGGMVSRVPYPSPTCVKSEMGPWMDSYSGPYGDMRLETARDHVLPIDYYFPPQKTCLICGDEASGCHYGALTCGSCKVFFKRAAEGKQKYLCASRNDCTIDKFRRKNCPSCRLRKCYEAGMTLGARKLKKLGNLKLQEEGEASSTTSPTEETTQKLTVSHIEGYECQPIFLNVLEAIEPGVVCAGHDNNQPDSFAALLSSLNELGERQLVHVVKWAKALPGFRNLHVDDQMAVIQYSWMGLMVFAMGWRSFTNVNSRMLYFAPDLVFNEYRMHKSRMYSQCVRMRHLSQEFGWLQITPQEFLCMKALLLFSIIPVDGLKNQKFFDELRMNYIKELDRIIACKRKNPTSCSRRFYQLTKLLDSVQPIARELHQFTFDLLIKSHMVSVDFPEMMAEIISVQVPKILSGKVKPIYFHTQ

T5 sequence (P22303 32-614): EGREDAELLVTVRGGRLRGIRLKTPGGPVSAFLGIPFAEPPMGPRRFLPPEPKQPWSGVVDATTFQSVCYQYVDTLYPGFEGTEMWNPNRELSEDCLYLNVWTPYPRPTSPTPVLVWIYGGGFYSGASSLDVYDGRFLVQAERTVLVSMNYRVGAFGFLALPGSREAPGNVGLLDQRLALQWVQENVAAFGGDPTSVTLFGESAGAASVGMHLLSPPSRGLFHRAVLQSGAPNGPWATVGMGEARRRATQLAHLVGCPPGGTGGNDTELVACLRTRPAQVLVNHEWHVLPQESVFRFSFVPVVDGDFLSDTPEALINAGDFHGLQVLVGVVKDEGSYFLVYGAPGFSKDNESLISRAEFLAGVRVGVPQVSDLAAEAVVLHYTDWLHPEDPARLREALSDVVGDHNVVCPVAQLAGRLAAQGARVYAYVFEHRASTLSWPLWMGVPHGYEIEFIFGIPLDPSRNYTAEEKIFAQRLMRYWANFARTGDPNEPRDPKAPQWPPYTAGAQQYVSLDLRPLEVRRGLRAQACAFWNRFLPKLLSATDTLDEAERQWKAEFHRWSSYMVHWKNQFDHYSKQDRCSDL
Sequence of Cannabinoid Receptor 2 (CNR2) (P34972 whole entry): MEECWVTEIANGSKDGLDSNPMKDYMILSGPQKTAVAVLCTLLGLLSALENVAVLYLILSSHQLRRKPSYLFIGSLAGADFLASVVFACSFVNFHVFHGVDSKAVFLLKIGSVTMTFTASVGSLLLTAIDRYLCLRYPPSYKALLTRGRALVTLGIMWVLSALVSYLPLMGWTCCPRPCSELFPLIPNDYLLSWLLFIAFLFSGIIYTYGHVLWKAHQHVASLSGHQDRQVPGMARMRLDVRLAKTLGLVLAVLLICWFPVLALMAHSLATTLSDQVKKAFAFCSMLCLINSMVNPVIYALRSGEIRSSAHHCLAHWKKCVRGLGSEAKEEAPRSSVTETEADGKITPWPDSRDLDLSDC
T4 sequence (P43681 29-627 limits assumed): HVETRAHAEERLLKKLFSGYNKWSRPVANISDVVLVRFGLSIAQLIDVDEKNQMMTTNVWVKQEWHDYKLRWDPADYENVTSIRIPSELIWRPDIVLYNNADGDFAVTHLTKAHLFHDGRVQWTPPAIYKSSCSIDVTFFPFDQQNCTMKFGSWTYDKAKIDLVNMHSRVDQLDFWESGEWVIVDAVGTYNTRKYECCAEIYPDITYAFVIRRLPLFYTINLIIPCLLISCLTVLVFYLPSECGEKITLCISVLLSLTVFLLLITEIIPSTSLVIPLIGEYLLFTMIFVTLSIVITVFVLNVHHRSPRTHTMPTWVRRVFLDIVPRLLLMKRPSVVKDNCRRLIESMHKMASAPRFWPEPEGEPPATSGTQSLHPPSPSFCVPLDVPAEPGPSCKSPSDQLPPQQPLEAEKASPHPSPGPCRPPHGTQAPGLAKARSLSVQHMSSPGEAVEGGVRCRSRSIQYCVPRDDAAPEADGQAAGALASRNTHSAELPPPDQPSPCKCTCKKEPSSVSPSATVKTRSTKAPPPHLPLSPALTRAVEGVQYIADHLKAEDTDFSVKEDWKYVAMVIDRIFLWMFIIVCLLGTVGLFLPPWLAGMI
T4 sequence (P17787 26-502): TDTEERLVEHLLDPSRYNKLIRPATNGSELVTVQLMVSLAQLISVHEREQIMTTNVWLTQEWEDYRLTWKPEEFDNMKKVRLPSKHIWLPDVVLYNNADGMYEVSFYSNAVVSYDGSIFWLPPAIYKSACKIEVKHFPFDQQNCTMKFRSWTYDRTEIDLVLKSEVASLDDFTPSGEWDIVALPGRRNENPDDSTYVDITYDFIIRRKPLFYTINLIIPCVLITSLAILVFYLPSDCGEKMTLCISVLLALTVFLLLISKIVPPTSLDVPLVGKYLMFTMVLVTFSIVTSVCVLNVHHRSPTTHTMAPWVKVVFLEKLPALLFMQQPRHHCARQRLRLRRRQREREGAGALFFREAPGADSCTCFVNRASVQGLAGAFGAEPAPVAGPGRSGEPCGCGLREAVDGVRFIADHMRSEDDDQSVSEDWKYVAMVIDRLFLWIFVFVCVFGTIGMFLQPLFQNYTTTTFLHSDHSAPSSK
Sequence of Adrenergic Receptor β2 (ADRB2) (P07550 whole entry): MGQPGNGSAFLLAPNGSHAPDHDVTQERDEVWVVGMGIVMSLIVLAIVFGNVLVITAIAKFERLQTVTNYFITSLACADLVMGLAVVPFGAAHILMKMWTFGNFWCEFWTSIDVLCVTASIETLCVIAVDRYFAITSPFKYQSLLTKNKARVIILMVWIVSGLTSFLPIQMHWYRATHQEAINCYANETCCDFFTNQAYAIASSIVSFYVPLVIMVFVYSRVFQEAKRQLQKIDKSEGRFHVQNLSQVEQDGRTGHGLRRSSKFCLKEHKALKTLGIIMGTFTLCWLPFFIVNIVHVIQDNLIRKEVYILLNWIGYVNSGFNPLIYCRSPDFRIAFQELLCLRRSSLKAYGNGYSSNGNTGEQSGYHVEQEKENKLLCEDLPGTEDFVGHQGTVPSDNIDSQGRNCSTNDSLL
Sequence of Cannabinoid Receptor 1 (CNR1) (P21554 whole entry): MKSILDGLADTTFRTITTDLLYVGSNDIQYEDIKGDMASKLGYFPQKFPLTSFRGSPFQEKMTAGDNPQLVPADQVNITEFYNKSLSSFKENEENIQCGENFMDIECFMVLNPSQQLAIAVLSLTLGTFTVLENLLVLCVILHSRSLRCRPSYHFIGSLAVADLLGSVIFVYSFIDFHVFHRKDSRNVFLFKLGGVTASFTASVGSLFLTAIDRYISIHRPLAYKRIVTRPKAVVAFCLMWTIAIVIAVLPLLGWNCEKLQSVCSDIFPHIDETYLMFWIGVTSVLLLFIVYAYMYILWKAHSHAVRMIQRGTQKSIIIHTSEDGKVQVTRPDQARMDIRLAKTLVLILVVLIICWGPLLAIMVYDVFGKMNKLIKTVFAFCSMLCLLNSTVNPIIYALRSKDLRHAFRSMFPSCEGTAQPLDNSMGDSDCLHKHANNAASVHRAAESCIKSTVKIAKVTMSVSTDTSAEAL
Sequence of Opioid Receptor Kappa 1 (OPRK1) (P41145 whole entry): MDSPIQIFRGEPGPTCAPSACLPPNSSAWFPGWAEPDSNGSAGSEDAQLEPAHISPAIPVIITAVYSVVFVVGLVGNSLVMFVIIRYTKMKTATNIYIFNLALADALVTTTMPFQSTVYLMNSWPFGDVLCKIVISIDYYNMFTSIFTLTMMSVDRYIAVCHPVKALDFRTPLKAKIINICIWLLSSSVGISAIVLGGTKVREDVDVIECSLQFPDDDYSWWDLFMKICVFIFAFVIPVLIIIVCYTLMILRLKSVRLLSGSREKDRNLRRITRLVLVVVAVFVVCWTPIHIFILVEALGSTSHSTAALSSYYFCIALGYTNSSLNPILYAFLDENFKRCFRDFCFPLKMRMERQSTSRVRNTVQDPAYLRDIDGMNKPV

SMILES	EC50 [1] [µM]	IC50 [1] [µM]	EC50 [2] [µM]	IC50 [2] [µM]	EC50 [3] [µM]	IC50 [3] [µM]	EC50 [4] [µM]	IC50 [4] [µM]	EC50 [5] [µM]	IC50 [5] [µM]	EC50 [6] [µM]	IC50 [6] [µM]	EC50 [7] [µM]	IC50 [7] [µM]	EC50 [8] [µM]	IC50 [8] [µM]	IC50 [9] [µM]	EC50 [10] [µM]	IC50 [10] [µM]
CNC(C)C(=O)c1c[nH]c2ccc(Br)cc12 (stereo not drawn) [BK-5Br-NM-AMT, 1-(5-bromo-1H-indol-3-yl)-2-(methylamino) propan-1-one hydrochloride]	> 10	> 10	> 10	> 10	> 10	5.44	> 10	> 10	> 10	> 10	> 10	> 10	> 10	> 10	> 10	> 10	> 10	> 10	> 10
CNC(C)C(=O)c1c[nH]c2ccc(Cl)cc12 (stereo not drawn) [BK-5Cl-NM-AMT, 1-(5-chloro-1H-indol-3-yl)-2-(methylamino) propan-1-one hydrochloride]	> 10	> 10	> 10	> 10	> 10	8.68	> 10	> 10	> 10	> 10	> 10	> 10	> 10	> 10	> 10	> 10	> 10	> 10	> 10
CNC(C)C(=O)c1c[nH]c2ccc(F)cc12 (stereo not drawn) [BK-5F-NM-AMT, 1-(5-Fluoro-1H-indol-3-yl)-2-(methylamino) propan-1-one hydrochloride]	> 10	> 10	> 10	> 10	> 10	> 10	> 10	> 10	> 10	> 10	> 10	> 10	> 10	> 10	> 10	> 10	> 10	> 10	> 10
